Here are results for five compounds from publication PMC12389646, “Design, Synthesis, and Bioactivity Assessment of Modified Vemurafenib Analog” (Pharmaceuticals, 2025).

For series [1], the system named is human melanoma A375 cells. The experiment in a line: MTS cell viability assay, A375. The series is classed as cell-based. To be noted: A-375, 24 h treatment, 0.01-10 μM tested. The protocol: (§1) The human cutaneous melanoma cancer cell line A375, obtained from the American Type Culture Collection (ATCC, Rockville, MD, USA) and human embryonic kidney HEK293T cell line, obtained from Rio de Janeiro Cell Bank (BCRJ, Rio de Janeiro, Brazil), were cultured in Dulbecco’s Modified Eagle’s Medium (DMEM, Sigma-Aldrich, St. Louis, MO, USA) supplemented with L-glutamine (2 mM), 10% fetal bovine serum (FBS), 50 IU/mL penicillin and 50 μg/mL streptomycin (Sigma-Aldrich, St. Louis, MO, USA). Cells were maintained at 37 °C in a humidified atmosphere containing 5% CO2. Low cell passages (between 5 and 20) were used in the present study.
(§2) Cell viability was measured using an MTS method based on the conversion of the tetrazolium salt MTS (3-(4,5-dimethylthiazol-2-yl)-5-(3-carboxymethoxyphenyl)-2-(4-sulfophenyl)-2H-tetrazolium, Sigma-Aldrich, St. Louis, MO, USA) to a purple formazan in the presence of phenazine methosulfate. The enzymes responsible are NADPH-dependent dehydrogenases, which are active in viable cells. Briefly, cells (5 × 10^4/well) were seeded in 96-well plates in medium with 10% FBS; after 24 h, the complete medium was replaced with fresh medium containing 1% FBS and incubated for 24 h. Fresh stock solutions were prepared on the day of the experiment, and the cells were treated with different concentrations of vemurafenib and analogs (0.01, 0.1, 0.5, 1, 5, and 10 μM). Effects were evaluated after 24 h. Untreated cells were incubated as controls. Following drug exposure, MTS was added, and the absorbance was measured at 570 nm using a microplate reader (CLARIOStar Plus, BMG LabTech, Ortenberg, Germany).
(§3) All the values of in vitro experiments are presented as the mean ± standard error of three independent experiments. Statistical analyses were performed via a one-way ANOVA with Dunnett’s post hoc test, and statistical significance was defined as * p < 0.05. IC50 values were calculated by non-linear regression analysis using an Inhibitor vs. normalized response model curve fit, as implemented. Statistical analyses were performed with GraphPad Prism 10.1.2 (GraphPad Software Inc., San Diego, CA, USA).
In general terms: Tetrazolium assays rely on reduction of a dye to a coloured formazan, in cell work by metabolically active cells.

Series [2] concerns non-tumor HEK293T cell line. The experiment in a line: MTS cell viability assay, HEK293T. Type of series: cell-based, human. To be noted: for IC50: Homo sapiens, HEK-293T, 24 h treatment; for Selectivity Index: IC50 HEK293T divided by IC50 A375. The procedure:
as §1, §2, §3

The subject of another series is MMP-2. Briefly: Gelatin zymography, MMP-2 in A375 conditioned media. The series is classed as cell-based, human. To be noted: A375 cells, 1 μM and 5 μM, 24 h. The procedure:
(§4) The potential effects of vemurafenib and its analogs on MMP-2 and MMP-9 activity in A375 cells were evaluated using gelatin zymography to detect gelatinolytic activity in conditioned media.
(§5) Gelatin zymography was carried out according to [30], using 7.5% SDS-polyacrylamide gels with 0.2% (w/v) gelatin. SDS-PAGE was run at 100 V at room temperature. Following electrophoresis, the gels were removed and placed in 2.5% (v/v) Triton X-100 to renature enzymes for 60 min. Then, gels were incubated in 50 mM Tris-HCl, 1 μM ZnCl2, 5 mM CaCl2, pH 7.5, overnight, to allow sufficient time for genatinolytic activity to occur. Following overnight incubation at 37 °C, gels were incubated in a staining solution (0.5% (v/v) Coomassie blue in a 40% methanol-10% acetic acid-water mixture) for 60 min. Following incubation, the staining solution, the gels were washed with the destaining solution (without coomassie blue) until the time to start to see the bands. Then imaged with a ChemiDoc^TM MP (BIO-RAD, Hercules, CA, USA) gel imaging system. Total protein and gelatinase activity were quantified using Image Lab™ Software 6.1 (BIO-RAD, Hercules, CA, USA).

A further series relates to MMP-9. Briefly: Gelatin zymography, MMP-9 in A375 conditioned media. The series is classed as cell-based, human. As to conditions: A375 cells, 1 μM and 5 μM, 24 h. The protocol:
as §4, §5

A further series relates to A375 cells. Briefly: TUNEL DNA fragmentation assay. To be noted: 5 μM, 24 h. The series is classed as cell-based, human. The protocol:
To detect DNA fragmentation in A375 cells, a modified apoptosis TUNEL method was used with the MEBSTAIN Apoptosis TUNEL Kit Direct (MBL International Corporation, Woburn, MA, USA) according to the manufacturer’s protocol. Briefly, cells were grown in 8-well culture slides (Corning, NY, USA) and incubated with the compounds (5 μM) for 24 h. Following treatments, the cells were washed with PBS and subsequently stained with TdT buffer, TdT solution, and Propidium Iodide, according to the manufacturer’s instructions. Experiments were conducted by fluorescent microscopy. The images were collected by an EVOS M5000 microscope (Thermo Fisher Scientific, Waltham, MA, USA).

As a reminder, the IC50 is the concentration that inhibits the measured activity by half.

With `O=C(N/N=C/c1c[nH]c2ncc(Br)cc12)c1cnc2ccccc2n1` [RF-94B (2d), (E)-N-((5-Bromo-1H-pyrrolo[2,3-b]pyridin-3-yl)methylene)quinoxaline-2-carbohydrazide], the IC50 in series [1] stood at 46.3 µM; in series [2] (HEK293T cells, MTS), 25.5 µM. In addition, in series [2], the “Selectivity Index” value is 0.55.

Regarding `O=C(N/N=C/c1c[nH]c2ncc(Br)cc12)c1ccc2c(c1)CCCC2` [RF-86A (2a), (E)-N-((5-Bromo-1H-pyrrolo[2,3-b]pyridin-3-yl)methylene)-5,6,7,8-tetrahydronaphthalene-2-carbohydrazide], the IC50 is 6.99 µM in series [1] and 114 µM in series [2] (HEK293T cells, MTS). For the same compound, the “MMP-2 expression and activity” value in the series on MMP-2 is recorded as “reduced”. The “Selectivity Index” value in series [2] stood at 16.37.

As for `CCCS(=O)(=O)Nc1ccc(F)c(C(=O)c2c[nH]c3ncc(-c4ccc(Cl)cc4)cc23)c1F` [Vemurafenib], the midpoint of inhibition in series [1], the IC50, lay at 7.68 µM. The “MMP-9 expression and activity” value in the series on MMP-9 is listed as “upregulated”. In series [2] (HEK293T cells, MTS), the “cytotoxicity toward HEK293T cells” value is on record as “no cytotoxicity” and the 50% inhibitory concentration (IC50) was over 1000 µM. In addition, the “Selectivity Index” value in series [2] was over 1000.

As for `O=C(N/N=C/c1c[nH]c2ncc(Br)cc12)c1cnccn1` [RF-94A (2c), (E)-N-((5-Bromo-1H-pyrrolo[2,3-b]pyridin-3-yl)methylene)pyrazine-2-carbohydrazide], the IC50 is 53 µM in series [1] and 25.8 µM in series [2] (HEK293T cells, MTS). Moreover, in the series on A375 cells, the “DNA fragmentation / TUNEL-positive apoptotic cells” value was “higher number of apoptotic cells”. Also, in the series with MMP-2, the “MMP-2 expression and activity” value is “reduced”. Besides, in series [2], the “Selectivity Index” value was 0.49.

`O=C(N/N=C/c1c[nH]c2ncc(Br)cc12)c1ccccn1` [RF-87A (2b), (E)-N-((5-Bromo-1H-pyrrolo[2,3-b]pyridin-3-yl)methylene)picolinohydrazide]: the concentration for half-maximal inhibition (IC50) stood at 47.2 µM in series [1] and 142 µM in series [2] (HEK293T cells, MTS). Moreover, the “MMP-2 expression and activity” value with MMP-2 is listed as “reduced”; with MMP-2 (listed as RF-87A), “reduced MMP-2 activity only at the lower concentration (1 μM)”. In addition, the “Selectivity Index” value in series [2] was 3.01.
